# Source: article PMC9083030 (RSC Advances, 2018)
# Tested on: QGY-7701 cell line
# Assay: CCK-8 cell proliferation assay, QGY-7701
# Type: cell-based, human
# Conditions: read-out: IC50 QGY-7701; CCK8, 72 h of treatment
structure (smiles),measurement,value
N.N.[Cl][Pt][Cl] [Cisplatin],IC50,8.75 ± 0.26 µM
